Test results from patent US8574563B2 (Bristol-Myers Squibb Company, priority 2006, dated 2013).

Test system: HCV 1b-377-neo replicon cells
Assay: HCV replicon assay, HCV 1b-377-neo replicon cells (1b FRET)
Type: cell-based, Hepatitis C virus genotype 1b
Conditions: Hepatitis C virus, HCV 1b-377-neo replicon cells; HCV 1b genotype; read-out: EC50 range against HCV 1b (Table 2, Range)
In short: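 FRET-based replicon assay in HCV 1b-377-neo cells, including a comparison line carrying the NS5A Y2065H mutation that confers resistance to a reference compound.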

Row | SMILES | EC50
1 | CCNC(=O)N[C@H](C(=O)N1CCC[C@H]1c1nc(-c2ccc(-c3ccc(-c4c[nH]c([C@@H]5CCCN5C(=O)[C@@H](NC(=O)NCC)C(C)C)n4)cc3)cc2)c[nH]1)C(C)C [Example F64, 1-ethyl-3-((1S)-1-(((2S)-2-(4-(4′-(2-((2S)-1-((2S)-2-((ethylcarbamoyl)amino)-3-methylbutanoyl)-2-pyrrolidinyl)-1H-imidazol-4-yl)-4-biphenylyl)-1H-imidazol-2-yl)-1-pyrrolidinyl)carbonyl)-2-methylpropyl)urea] | 1 to 99 nM
2 | COC(=O)N[C@@H](C(=O)N1CCC[C@H]1c1ncc(-c2ccc(-c3ccc(-c4cnc([C@@H]5CCCN5C(=O)[C@H](O)c5ccccc5)[nH]4)cc3)cc2)[nH]1)c1ccccc1 [Example 43, methyl ((1R)-2-((2S)-2-(5-(4′-(2-((2S)-1-((2R)-2-hydroxy-2-phenylacetyl)-2-pyrrolidinyl)-1H-imidazol-5-yl)-4-biphenylyl)-1H-imidazol-2-yl)-1-pyrrolidinyl)-2-oxo-1-phenylethyl)carbamate] | 0.001 to 0.999 nM
3 | CC[C@H](NC(=O)OC)C(=O)N1[C@@H](C)CC[C@H]1c1nc(-c2ccc(-c3ccc(-c4c[nH]c([C@@H]5CC[C@H](C)N5C(=O)[C@H](CC)NC(=O)OC)n4)cc3)cc2)c[nH]1 [Example M154, dimethyl (4,4′-biphenyldiylbis(1H-imidazole-4,2-diyl((2S,5S)-5-methyl-2,1-pyrrolidinediyl)((2S)-1-oxo-1,2-butanediyl)))biscarbamate] | 0.001 to 0.999 nM
4 | COC(=O)N[C@@H](C(=O)N1CCC[C@H]1c1ncc(-c2cnc(-c3cnc(-c4cnc([C@@H]5CCCN5C(=O)[C@H](NC(=O)OC)c5ccccc5)[nH]4)cn3)cn2)[nH]1)c1ccccc1 [Example 153c-6, dimethyl (2,2′-bipyrazine-5,5′-diylbis(1H-imidazole-5,2-diyl(2S)-2,1-pyrrolidinediyl((1R)-2-oxo-1-phenyl-2,1-ethanediyl)))biscarbamate] | 1 to 99 nM
5 | COC(=O)N[C@@H](C(=O)N1CC(F)(F)C[C@H]1c1nc(-c2ccc(-c3ccc(-c4cnc([C@@H]5CC(F)(F)CN5C(=O)[C@H](NC(=O)OC)c5ccccc5)[nH]4)cc3)cc2)c[nH]1)c1ccccc1 [Example 24-9, dimethyl (4,4′-biphenyldiylbis(1H-imidazole-4,2-diyl((2S)-4,4-difluoro-2,1-pyrrolidinediyl)((1R)-2-oxo-1-phenyl-2,1-ethanediyl)))biscarbamate] | 0.001 to 0.999 nM
6 | CCN(CC)[C@@H](C(=O)N1CCC[C@H]1c1ncc(-c2ccc(-c3ccc(-c4cnc([C@@H]5CCCN5C(=O)[C@H]5CCC[C@@H]5NC(=O)OC)[nH]4)cc3)cc2)[nH]1)c1ccccc1 [cj-116, methyl ((1S,2S)-2-(((2S)-2-(5-(4′-(2-((2S)-1-((2R)-2-(diethylamino)-2-phenylacetyl)-2-pyrrolidinyl)-1H-imidazol-5-yl)-4-biphenylyl)-1H-imidazol-2-yl)-1-pyrrolidinyl)carbonyl)cyclopentyl)carbamate] | 0.001 to 0.999 nM
7 | COCC[C@H](NC(=O)OC)C(=O)N1CCC[C@H]1c1ncc(-c2ccc(-c3ccc(-c4cnc([C@@H]5CCCN5C(=O)[C@H](C)NC(=O)OC)[nH]4)cc3)cc2)[nH]1 [cj-120, methyl ((1S)-3-methoxy-1-(((2S)-2-(5-(4′-(2-((2S)-1-(N-(methoxycarbonyl)-L-alanyl)-2-pyrrolidinyl)-1H-imidazol-5-yl)-4-biphenylyl)-1H-imidazol-2-yl)-1-pyrrolidinyl)carbonyl)propyl)carbamate] | 0.001 to 0.999 nM
8 | COC(=O)N[C@@H](C(=O)N1CCC[C@H]1c1ncc(-c2ccc(-c3ccc(-c4cnc([C@@H]5CCCN5C(=O)[C@H](NC(=O)OC)c5ccccc5)[nH]4)cc3)cc2)[nH]1)c1ccccc1 [Example 4, dimethyl (4,4′-biphenyldiylbis(1H-imidazole-5,2-diyl(2S)-2,1-pyrrolidinediyl((1R)-2-oxo-1-phenyl-2,1-ethanediyl)))biscarbamate] | 0.001 to 0.999 nM
